Patent publication US4215111A, “Peptides having ubiquitin-like activity” (Ortho Pharmaceutical Corporation, priority 1979, dated 1980)
Square brackets hold non-standard residues; d marks the D form. Peptide text beside a SMILES is read from it. Sar = CNCC(=O)O

Key:
[1] = test system: Thy-1+ T-lymphocytes and complement receptor (CR+) B-lymphocytes differentiation; assay: In vitro induction of Thy-1+ T cell and CR+ B cell differentiation from nu/nu mouse spleen precursor cells; type: cell-based, nu/nu mice (BALB/c background); conditions: for Active Concentration Range: induction of Thy-1+ T-lymphocytes and CR+ B-lymphocytes in vitro
Description: To determine the activity and characteristics of the peptide of Example I, determinations were carried out on healthy 5-6 week nu/nu mice of both sexes, the mice being bred on a BALB/c background (thymocytes expressing Thy-1.2 surface antigen) and maintained under conventional conditions. For the antisera, anti Thy-1.2 sera were prepared in Thy-1 congenic mice.
For the induction in vitro of Thy-1^+ T cells or CR^+ B cell differentiation, the induction of thymocyte differentiation from prothymocytes in vitro was performed as described by Komuro and Boyse, (Lancet, 1, 740, 1973), using the acquisition of Thy-1.2 as a marker of T cell differentiation. The induction of CR^+ B cell differentiation from CR^- B cell precursors in vitro was performed under similar conditions using as the assay criterion, the capacity of CR^+ B cells to bind sheep erythrocytes coated with subagglutinating quantities of rabbit antibody and nonlytic complement. Spleen cell populations from healthy nu/nu mice fractionated on discontinuous bovine serum albumin gradients were used as the source of both precursor types (Thy-1^- and CR^-) because they have few or no Thy-1^+ cells and low numbers of CR^+ cells.

[2] = reference application; cited from earlier work

Compound: CNCC(=O)N(C)CC(=O)N(C)CC(=O)N[C@@H](CCC(N)=O)C(=O)N[C@@H](CCCCN)C(N)=O [VI, H--SAR--SAR--SAR--GLN--LYS--NH2] (H-[Sar][Sar][Sar]QK-NH2)
- potency relative to the thymopoietin pentapeptide [1]: approximately 10 million

Compound: H-TYR-ALA-ILE-GLN-LYS-OH (H-YAIQK-OH)
- concentration at which activity is possessed [2]: 0.1 µg/mL

Compound: CNCC(=O)N[C@@H](CCC(N)=O)C(=O)N[C@@H](CCCCN)C(N)=O [IV, H--SAR--GLN--LYS--NH2] (H-[Sar]-Gln-Lys-NH2)
- Active Concentration Range [1]: 1 to 10 µg/mL

Compound: CNCC(=O)N(C)CC(=O)N(C)CC(=O)N(C)CC(=O)N[C@@H](CCC(N)=O)C(=O)N[C@@H](CCCCN)C(N)=O [VII, H--SAR--SAR--SAR--SAR--GLN--LYS--NH2] (H-[Sar][Sar][Sar][Sar]QK-NH2)
- Active Concentration Range [1]: 1e-06 to 0.0001 µg/mL

Compound: H-TYR-ASN-ALA-GLN-LYS-OH (H-YNAQK-OH)
- concentration at which activity is possessed [2]: 0.1 µg/mL

Compound: H-ALA-ASN-ILE-GLN-LYS-OH (H-ANIQK-OH)
- concentration at which activity is possessed [2]: 0.1 µg/mL

Compound: NCCCC[C@H](NC(=O)[C@@H](N)CCC(N)=O)C(N)=O [Example I, H-GLN-LYS-NH2] (H-Gln-Lys-NH2)
- potency relative to the thymopoietin pentapeptide [1]: same potency as the thymopoietin pentapeptide
- ubiquitin-like biological activity (in words) ([1]; induction of Thy-1+ T and CR+ B lymphocyte differentiation): selectivity of actions similar to that of ubiquitin
